Reference: ChEMBL document CHEMBL1148120, “New cytotoxic 6,7-cis and 6,7-trans configured guaianolides from Warionia saharae” (J Nat Prod, 2002)
≈ marks a conversion by molar mass, not a printed value.

Test system: KB
Assay: Cytotoxicity against human KB cells
Format: functional, cell-based

**Q.** For `C=C1C(=O)O[C@@H]2[C@H]1CCC(C)=C1[C@H]3O[C@](C)([C@H]3OC(=O)C(C)CC)[C@@H]12` (stereo partly drawn) [3BETA-O-(2-METHYLBUTYRYL)MOROCCOLIDE A], which IC50 is on record?
**A.** Its IC50 is 1 µg/mL (≈ 2.89 µM).

**Q.** Which IC50 does the source give for `C=C1C(=O)O[C@H]2[C@H]1CC=C(C)[C@]1(O)C[C@H]3O[C@@]3(C)[C@H]21` here?
**A.** The IC50 was 1.7 µg/mL (≈ 6.48 µM).

**Q.** How did the IC50 turn out when `C=C1C(=O)O[C@H]2[C@H]1CCC(=C)[C@]1(O)C[C@H]3O[C@@]3(C)[C@H]21` was run?
**A.** Its IC50 is 2 µg/mL (≈ 7.62 µM).

**Q.** How did the IC50 turn out when `C=C1C(=O)O[C@@H]2[C@H]1CCC(C)=C1[C@H]3O[C@](C)([C@H]3O)[C@@H]12` [MOROCCOLIDE A] was run?
**A.** Its IC50 is 4.5 µg/mL (≈ 17.2 µM).

**Q.** With `C=C1C(=O)O[C@H]2[C@@H]3[C@@](O)(C(C)=CC[C@@H]12)[C@@H]1C[C@@]3(C)O1` [SAHARANOLIDE A] as the compound, how does the IC50 read?
**A.** Its IC50 is 3.3 µg/mL (≈ 12.6 µM).

**Q.** For `C=C1C(=O)O[C@H]2[C@@H]3[C@@](O)(C(=C)CC[C@@H]12)[C@@H]1C[C@@]3(C)O1` [SAHARANOLIDE B], which IC50 is on record?
**A.** Its IC50 is 5.5 µg/mL (≈ 21 µM).
